Experimental data from US9708314B2, “Heterocyclic amide compound” (NISSAN CHEMICAL INDUSTRIES, LTD., priority 2013, dated 2017).

Legend:
Type in all cases: in vivo
[1] = test system: Echinochloa oryzacola Vasing.; assay: Test Example 1: herbicidal activity, application before weed generation in submerged conditions; settings: Application herbicide amount 320 g/ha; Seventeenth Table
Procedure, shortened: (§1)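 Submerged pot test: alluvial soil, 4 cm water, seeds sown mixed, 2.5-leaf rice transplanted; emulsion in water applied to surface day of sowing, dose g/ha; greenhouse 25–30° C.; 3 wk; 0–5 rating.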

Monochoria vaginalis = assay: as above; settings: Application herbicide amount 320 g/ha; Seventeenth Table
Procedure, shortened: as §1

Scirpus juncoides = assay: as above; settings: Application herbicide amount 320 g/ha; Seventeenth Table
Procedure, shortened: as §1

[2] = test system: transplanted Oryza sativa; assay: Test Example 1: effect on crop, application before weed generation in submerged conditions; settings: Application herbicide amount 320 g/ha; Seventeenth Table
Procedure, shortened: as §1

Cyperus difformis = assay: Test Example 3: herbicidal effect by application to foliage (Wagner pot, water depth 0.1-0.5 cm); settings: Nineteenth Table
Procedure, shortened: (§2)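 Rice-field weeds and directly sown rice were grown 14 days in flooded alluvial soil (water depth 0.1–0.5 cm) at 25–30 °C in a greenhouse. An emulsion formulation diluted to the stated g/ha rate was sprayed onto stems and leaves. Effects were scored on a 0–5 scale (herbicidal ratio bands) three weeks after treatment.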

[3] = test system: Echinochloa crus-galli var. crus-galli; assay: as above; settings: Nineteenth Table
Procedure, shortened: as §2

Leptochloa chinensis = assay: as above; settings: Nineteenth Table
Procedure, shortened: as §2

[4] = test system: directly sowed Oryza sativa; assay: Test Example 3: effect on crop by application to foliage (Wagner pot, water depth 0.1-0.5 cm); settings: Nineteenth Table
Procedure, shortened: as §2

Stellaria media = assay: Test Example 4: herbicidal effect by application to foliage (diluvial soil, plastic box); settings: application to foliage, application herbicide amount 320 g/ha
Procedure, shortened: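 Read-out is a 0–5 visual grade of herbicidal ratio (5: ≥90%, almost withered; 0: ≤5%) taken three weeks after treatment. Compound was applied as a diluted emulsion to stem and leaf parts of 14-day greenhouse-grown plants (25° C. to 30° C.) at rates expressed as g/ha.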

[5] = application herbicide amount 320 g/ha
[6] = application herbicide amount 400 g/ha

| Compound | A: Echinochloa oryzicola Vasing. (herbicidal effect grade) [1] | C: Monochoria vaginalis (herbicidal effect grade) (Monochoria vaginalis) | B: Scirpus juncoides (herbicidal effect grade) (Scirpus juncoides) | a: transplanted Oryza sativa (effect on crop grade) [2] | E (Cyperus difformis) herbicidal ratio grade (Cyperus difformis; [5]) | H (Echinochloa crus-galli var. crus-galli) herbicidal ratio grade [3, 5] | D (Leptochloa chinensis) herbicidal ratio grade (Leptochloa chinensis; [5]) | b (directly sowed Oryza sativa) effect on crop grade [4, 5] | P (Stellaria media) herbicidal effect (Stellaria media) | E (Cyperus difformis) herbicidal ratio grade (Cyperus difformis; [6]) | H (Echinochloa crus-galli var. crus-galli) herbicidal ratio grade [3, 6] | D (Leptochloa chinensis) herbicidal ratio grade (Leptochloa chinensis; [6]) | b (directly sowed Oryza sativa) effect on crop grade [4, 6] |
| --- | --- | --- | --- | --- | --- | --- | --- | --- | --- | --- | --- | --- | --- |
| Cc1cc(-c2nnc3c(C(=O)Nc4nnc(C)o4)ccc(C(F)(F)F)n23)no1 [1-022] | 2 (Herbicidal ratio of 20% or more and less than 40%) | 0 (Herbicidal ratio of 5% or less (almost no effect)) | 2 (Herbicidal ratio of 20% or more and less than 40%) | 0 (Herbicidal ratio of 5% or less (almost no effect)) | 4 (Herbicidal ratio of 70% or more and less than 90%) | 5 (Herbicidal ratio of 90% or more (almost completely withered)) | 5 (Herbicidal ratio of 90% or more (almost completely withered)) | 2 (Herbicidal ratio of 20% or more and less than 40%) | 4 (Herbicidal ratio of 70% or more and less than 90%) |  |  |  |  |
| Cc1nnc(NC(=O)c2ccc(C(F)(F)F)n3c(C4CCCC4)nnc23)o1 [1-026] | 5 (Herbicidal ratio of 90% or more (almost completely withered)) | 4 (Herbicidal ratio of 70% or more and less than 90%) | 4 (Herbicidal ratio of 70% or more and less than 90%) | 2 (Herbicidal ratio of 20% or more and less than 40%) | 4 (Herbicidal ratio of 70% or more and less than 90%) | 5 (Herbicidal ratio of 90% or more (almost completely withered)) | 4 (Herbicidal ratio of 70% or more and less than 90%) | 4 (Herbicidal ratio of 70% or more and less than 90%) | 5 (Herbicidal ratio of 90% or more (almost completely withered)) |  |  |  |  |
| Cc1ccc(-c2nnc3c(C(=O)Nc4nnc(C)o4)ccc(C(F)(F)F)n23)cc1 [1-043] | 5 (Herbicidal ratio of 90% or more (almost completely withered)) | 3 (Herbicidal ratio of 40% or more and less than 70%) | 3 (Herbicidal ratio of 40% or more and less than 70%) | 3 (Herbicidal ratio of 40% or more and less than 70%) | 5 (Herbicidal ratio of 90% or more (almost completely withered)) | 5 (Herbicidal ratio of 90% or more (almost completely withered)) | 4 (Herbicidal ratio of 70% or more and less than 90%) | 5 (Herbicidal ratio of 90% or more (almost completely withered)) | 4 (Herbicidal ratio of 70% or more and less than 90%) |  |  |  |  |
| COc1cccc(-c2nnc3c(C(=O)Nc4nnc(C)o4)ccc(C(F)(F)F)n23)c1 [1-046] | 5 (Herbicidal ratio of 90% or more (almost completely withered)) | 3 (Herbicidal ratio of 40% or more and less than 70%) | 3 (Herbicidal ratio of 40% or more and less than 70%) | 2 (Herbicidal ratio of 20% or more and less than 40%) | 3 (Herbicidal ratio of 40% or more and less than 70%) | 5 (Herbicidal ratio of 90% or more (almost completely withered)) | 3 (Herbicidal ratio of 40% or more and less than 70%) | 3 (Herbicidal ratio of 40% or more and less than 70%) | 4 (Herbicidal ratio of 70% or more and less than 90%) |  |  |  |  |
| CC(C)c1nnc2c(C(=O)Nc3nnc(C4CC4)o3)ccc(C(F)(F)F)n12 [1-051] | 5 (Herbicidal ratio of 90% or more (almost completely withered)) | 4 (Herbicidal ratio of 70% or more and less than 90%) | 4 (Herbicidal ratio of 70% or more and less than 90%) | 0 (Herbicidal ratio of 5% or less (almost no effect)) | 4 (Herbicidal ratio of 70% or more and less than 90%) | 4 (Herbicidal ratio of 70% or more and less than 90%) | 5 (Herbicidal ratio of 90% or more (almost completely withered)) | 0 (Herbicidal ratio of 5% or less (almost no effect)) | 3 (Herbicidal ratio of 40% or more and less than 70%) |  |  |  |  |
| CCC(CC)c1nnc2c(C(=O)Nc3nnc(C)o3)ccc(C(F)(F)F)n12 [1-011] | 5 (Herbicidal ratio of 90% or more (almost completely withered)) | 5 (Herbicidal ratio of 90% or more (almost completely withered)) | 4 (Herbicidal ratio of 70% or more and less than 90%) | 1 (Herbicidal ratio of 5% or more and less than 20%) |  |  |  |  | 5 (Herbicidal ratio of 90% or more (almost completely withered)) | 5 (Herbicidal ratio of 90% or more (almost completely withered)) | 5 (Herbicidal ratio of 90% or more (almost completely withered)) | 5 (Herbicidal ratio of 90% or more (almost completely withered)) | 0 (Herbicidal ratio of 5% or less (almost no effect)) |
| Cc1nnc(NC(=O)c2ccc(C(F)(F)F)n3c(CC(=O)OC(C)C)nnc23)o1 [1-049] | 5 (Herbicidal ratio of 90% or more (almost completely withered)) | 0 (Herbicidal ratio of 5% or less (almost no effect)) | 2 (Herbicidal ratio of 20% or more and less than 40%) | 0 (Herbicidal ratio of 5% or less (almost no effect)) | 4 (Herbicidal ratio of 70% or more and less than 90%) | 5 (Herbicidal ratio of 90% or more (almost completely withered)) | 4 (Herbicidal ratio of 70% or more and less than 90%) | 1 (Herbicidal ratio of 5% or more and less than 20%) | 4 (Herbicidal ratio of 70% or more and less than 90%) |  |  |  |  |
| CCc1nnc(NC(=O)c2ccc(C(F)(F)F)n3c(C(C)C)nnc23)o1 [1-005] | 5 (Herbicidal ratio of 90% or more (almost completely withered)) | 4 (Herbicidal ratio of 70% or more and less than 90%) | 4 (Herbicidal ratio of 70% or more and less than 90%) | 0 (Herbicidal ratio of 5% or less (almost no effect)) |  |  |  |  | 1 (Herbicidal ratio of 5% or more and less than 20%) | 5 (Herbicidal ratio of 90% or more (almost completely withered)) | 2 (Herbicidal ratio of 20% or more and less than 40%) | 5 (Herbicidal ratio of 90% or more (almost completely withered)) | 0 (Herbicidal ratio of 5% or less (almost no effect)) |
| Cc1nnc(NC(=O)c2ccc(C(F)(F)F)n3c(SC(C)C)nnc23)o1 [1-033] | 5 (Herbicidal ratio of 90% or more (almost completely withered)) | 3 (Herbicidal ratio of 40% or more and less than 70%) | 4 (Herbicidal ratio of 70% or more and less than 90%) | 0 (Herbicidal ratio of 5% or less (almost no effect)) | 5 (Herbicidal ratio of 90% or more (almost completely withered)) | 5 (Herbicidal ratio of 90% or more (almost completely withered)) | 5 (Herbicidal ratio of 90% or more (almost completely withered)) | 1 (Herbicidal ratio of 5% or more and less than 20%) | 5 (Herbicidal ratio of 90% or more (almost completely withered)) |  |  |  |  |
| Cc1nnc(NC(=O)c2ccc(C(F)(F)F)n3cnnc23)o1 [1-001] | 3 (Herbicidal ratio of 40% or more and less than 70%) | 2 (Herbicidal ratio of 20% or more and less than 40%) | 2 (Herbicidal ratio of 20% or more and less than 40%) | 0 (Herbicidal ratio of 5% or less (almost no effect)) | 4 (Herbicidal ratio of 70% or more and less than 90%) | 5 (Herbicidal ratio of 90% or more (almost completely withered)) | 5 (Herbicidal ratio of 90% or more (almost completely withered)) | 0 (Herbicidal ratio of 5% or less (almost no effect)) | 4 (Herbicidal ratio of 70% or more and less than 90%) |  |  |  |  |
